Experimental data taken from ChEMBL document CHEMBL5038581, “Design, synthesis, and biological evaluation of novel dual inhibitors targeting lysine specific demethylase 1 (LSD1) and histone deacetylases (HDAC) for treatment of gastric cancer” (Eur J Med Chem, 2021).

Key:
Histone deacetylase 5 = Histone deacetylase 5 (Homo sapiens, UniProt Q9UQL6); assay: Inhibition of HDAC5 (unknown origin) using Ac-peptide as substrate preincubated for 15 mins followed by substrate addition by fluorescence assay
[1] = target: T1, Protein deacetylase HDAC6 (Homo sapiens, UniProt Q9UBN7); assay: Inhibition of HDAC6 (unknown origin) using Ac-peptide as substrate preincubated for 15 mins followed by substrate addition by fluorescence assay
T1 sequence (Q9UBN7 whole entry): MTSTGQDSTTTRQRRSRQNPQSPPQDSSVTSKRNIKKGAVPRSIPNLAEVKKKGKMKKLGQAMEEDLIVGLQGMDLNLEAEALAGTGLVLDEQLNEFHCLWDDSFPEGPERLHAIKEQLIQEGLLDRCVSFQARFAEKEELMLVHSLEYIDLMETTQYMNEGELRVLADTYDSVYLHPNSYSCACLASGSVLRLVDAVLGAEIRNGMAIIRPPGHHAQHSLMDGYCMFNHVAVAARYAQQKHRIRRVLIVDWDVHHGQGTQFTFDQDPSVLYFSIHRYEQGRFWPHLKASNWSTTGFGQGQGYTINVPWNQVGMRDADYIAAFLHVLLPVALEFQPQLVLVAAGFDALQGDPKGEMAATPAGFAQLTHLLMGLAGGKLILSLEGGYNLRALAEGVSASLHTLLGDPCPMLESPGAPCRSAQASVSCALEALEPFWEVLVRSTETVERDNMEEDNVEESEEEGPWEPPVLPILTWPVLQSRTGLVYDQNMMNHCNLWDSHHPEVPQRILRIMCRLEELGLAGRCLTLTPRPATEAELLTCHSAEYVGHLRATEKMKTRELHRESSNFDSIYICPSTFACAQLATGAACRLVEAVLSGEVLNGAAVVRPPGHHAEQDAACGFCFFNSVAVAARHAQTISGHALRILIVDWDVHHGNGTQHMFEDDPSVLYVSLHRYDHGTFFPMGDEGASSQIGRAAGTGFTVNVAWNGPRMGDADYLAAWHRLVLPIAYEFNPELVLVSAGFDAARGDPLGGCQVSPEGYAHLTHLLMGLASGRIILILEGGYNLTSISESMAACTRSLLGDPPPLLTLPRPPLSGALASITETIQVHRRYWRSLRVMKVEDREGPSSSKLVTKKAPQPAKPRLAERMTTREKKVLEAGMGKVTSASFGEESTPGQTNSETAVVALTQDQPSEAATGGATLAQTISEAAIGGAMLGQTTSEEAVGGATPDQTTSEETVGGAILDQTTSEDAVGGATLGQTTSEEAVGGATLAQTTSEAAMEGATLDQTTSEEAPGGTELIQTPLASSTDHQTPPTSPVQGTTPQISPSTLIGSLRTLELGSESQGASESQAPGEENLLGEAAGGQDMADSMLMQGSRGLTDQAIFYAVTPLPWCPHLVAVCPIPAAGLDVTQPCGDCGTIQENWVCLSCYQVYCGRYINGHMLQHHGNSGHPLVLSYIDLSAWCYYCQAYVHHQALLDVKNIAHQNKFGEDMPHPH

[2] = Metabolic stability in human liver microsomes assessed as half life in presence of NADPH at 1 uM by LC-MS/MS analysis; type: ADME, Microsome
CYP2C9 = CYP2C9 (Homo sapiens, UniProt P11712); assay: Inhibition of CYP2C9 (unknown origin) at 10 uM using diclofenac as substrate relative to control; type: ADME; conditions: probe diclofenac
CYP1A2 = target: T2, CYP1A2 (Homo sapiens, UniProt P05177); assay: Inhibition of CYP1A2 (unknown origin) at 10 uM using phenacetin as substrate relative to control; type: ADME; conditions: probe phenacetin
T2 sequence (P05177 whole entry): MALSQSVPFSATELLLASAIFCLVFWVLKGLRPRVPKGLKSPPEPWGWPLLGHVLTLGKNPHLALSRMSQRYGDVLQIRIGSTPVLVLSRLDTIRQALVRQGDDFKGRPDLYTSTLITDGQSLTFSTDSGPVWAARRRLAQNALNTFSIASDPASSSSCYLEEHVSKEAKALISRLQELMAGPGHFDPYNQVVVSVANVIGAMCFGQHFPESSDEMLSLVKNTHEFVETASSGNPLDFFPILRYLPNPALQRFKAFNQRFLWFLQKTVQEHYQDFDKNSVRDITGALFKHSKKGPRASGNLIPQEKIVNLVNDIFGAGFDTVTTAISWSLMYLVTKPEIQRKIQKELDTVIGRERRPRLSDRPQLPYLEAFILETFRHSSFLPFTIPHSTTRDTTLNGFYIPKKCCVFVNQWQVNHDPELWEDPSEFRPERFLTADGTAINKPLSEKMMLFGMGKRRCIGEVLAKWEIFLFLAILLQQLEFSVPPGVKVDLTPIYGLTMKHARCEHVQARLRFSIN

[3] = target: Amine oxidase [flavin-containing] B (Homo sapiens, UniProt P27338); assay: Inhibition of human recombinant MAO-B by multimode plate reader assay
Histone deacetylase 11 = Histone deacetylase 11 (Homo sapiens, UniProt Q96DB2); assay: Inhibition of HDAC11 (unknown origin) using Ac-peptide as substrate preincubated for 15 mins followed by substrate addition by fluorescence based microplate reader analysis
MGC-803 [4] = assay: Induction of apoptosis in human MGC-803 cells assessed as apoptotic cells at 2.5 uM incubated for 48 hrs by annexin V-FITC and PI staining based flowcytometry analysis (Rvb =4.9 %); type: functional
MGC-803 [5] = assay: Induction of apoptosis in human MGC-803 cells assessed as apoptotic cells at 5 uM incubated for 48 hrs by annexin V-FITC and PI staining based flowcytometry analysis (Rvb =4.3 %); type: functional
MGC-803 [6] = assay: Induction of apoptosis in human MGC-803 cells assessed as decrease in Bcl2 protein expression at 1.25 to 7.5 uM incubated for 48 hrs by western blot analysis; type: functional, cell-based; conditions: dose 1.25-7.5 µM
MGC-803 [7] = assay: Inhibition of cell migration in human MGC-803 cells 0.2 to 0.8 uM up to 24 hrs by wound healing assay; type: functional, cell-based; conditions: dose 0.2-0.8 µM, time hrs <=24
CYP2D6 = CYP2D6 (Homo sapiens, UniProt P10635); assay: Inhibition of CYP2D6 (unknown origin) at 10 uM using dextromethorphan as substrate relative to control; type: ADME; conditions: probe dextromethorphan
CYP3A4 = CYP3A4 (Homo sapiens, UniProt P08684); assay: Inhibition of CYP3A4 (unknown origin) at 10 uM using testosterone as substrate relative to control; type: ADME; conditions: probe testosterone
[8] = Metabolic stability in rat liver microsomes assessed as half life in presence of NADPH at 1 uM by LC-MS/MS analysis; type: ADME, Microsome
[9] = Metabolic stability in human liver microsomes assessed as intrinsic clearance in presence of NADPH at 1 uM by LC-MS/MS analysis; type: ADME, Microsome; conditions: read-out: CLH
[10] = Metabolic stability in rat liver microsomes assessed as intrinsic clearance in presence of NADPH at 1 uM by LC-MS/MS analysis; type: ADME, Microsome; conditions: read-out: CLH
HCT-116 = assay: cells; conditions: Homo sapiens, HCT-116, 72 h
MGC-803 [11] = assay: cells; conditions: Homo sapiens, MGC-803, 72 h

CYP2C9, sequence (P11712 whole entry): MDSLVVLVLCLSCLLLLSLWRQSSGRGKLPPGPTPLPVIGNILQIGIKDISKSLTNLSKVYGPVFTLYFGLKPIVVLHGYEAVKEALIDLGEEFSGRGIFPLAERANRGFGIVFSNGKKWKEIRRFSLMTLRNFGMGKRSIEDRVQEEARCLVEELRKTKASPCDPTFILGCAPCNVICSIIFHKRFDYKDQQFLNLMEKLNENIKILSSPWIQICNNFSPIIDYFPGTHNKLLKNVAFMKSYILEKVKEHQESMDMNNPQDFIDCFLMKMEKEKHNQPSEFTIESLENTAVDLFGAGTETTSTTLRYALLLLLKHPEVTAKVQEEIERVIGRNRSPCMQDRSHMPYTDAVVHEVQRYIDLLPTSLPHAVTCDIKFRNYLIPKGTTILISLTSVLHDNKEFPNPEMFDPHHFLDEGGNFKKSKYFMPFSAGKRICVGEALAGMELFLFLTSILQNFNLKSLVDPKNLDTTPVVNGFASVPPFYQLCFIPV
CYP2D6, sequence (P10635 whole entry): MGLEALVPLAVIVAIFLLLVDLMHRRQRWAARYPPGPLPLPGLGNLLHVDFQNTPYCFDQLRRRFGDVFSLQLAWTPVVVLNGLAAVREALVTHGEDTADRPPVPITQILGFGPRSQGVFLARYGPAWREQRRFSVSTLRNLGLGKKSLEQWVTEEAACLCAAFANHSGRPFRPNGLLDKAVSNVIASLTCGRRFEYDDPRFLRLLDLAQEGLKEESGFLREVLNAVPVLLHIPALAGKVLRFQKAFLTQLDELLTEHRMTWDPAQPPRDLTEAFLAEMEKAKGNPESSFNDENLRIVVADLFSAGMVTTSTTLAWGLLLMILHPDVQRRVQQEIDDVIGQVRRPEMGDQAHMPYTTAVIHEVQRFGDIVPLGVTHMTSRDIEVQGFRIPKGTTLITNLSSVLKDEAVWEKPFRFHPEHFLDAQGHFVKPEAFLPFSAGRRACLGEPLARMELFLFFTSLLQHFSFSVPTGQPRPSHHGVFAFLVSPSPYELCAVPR
Histone deacetylase 5, sequence (Q9UQL6 whole entry): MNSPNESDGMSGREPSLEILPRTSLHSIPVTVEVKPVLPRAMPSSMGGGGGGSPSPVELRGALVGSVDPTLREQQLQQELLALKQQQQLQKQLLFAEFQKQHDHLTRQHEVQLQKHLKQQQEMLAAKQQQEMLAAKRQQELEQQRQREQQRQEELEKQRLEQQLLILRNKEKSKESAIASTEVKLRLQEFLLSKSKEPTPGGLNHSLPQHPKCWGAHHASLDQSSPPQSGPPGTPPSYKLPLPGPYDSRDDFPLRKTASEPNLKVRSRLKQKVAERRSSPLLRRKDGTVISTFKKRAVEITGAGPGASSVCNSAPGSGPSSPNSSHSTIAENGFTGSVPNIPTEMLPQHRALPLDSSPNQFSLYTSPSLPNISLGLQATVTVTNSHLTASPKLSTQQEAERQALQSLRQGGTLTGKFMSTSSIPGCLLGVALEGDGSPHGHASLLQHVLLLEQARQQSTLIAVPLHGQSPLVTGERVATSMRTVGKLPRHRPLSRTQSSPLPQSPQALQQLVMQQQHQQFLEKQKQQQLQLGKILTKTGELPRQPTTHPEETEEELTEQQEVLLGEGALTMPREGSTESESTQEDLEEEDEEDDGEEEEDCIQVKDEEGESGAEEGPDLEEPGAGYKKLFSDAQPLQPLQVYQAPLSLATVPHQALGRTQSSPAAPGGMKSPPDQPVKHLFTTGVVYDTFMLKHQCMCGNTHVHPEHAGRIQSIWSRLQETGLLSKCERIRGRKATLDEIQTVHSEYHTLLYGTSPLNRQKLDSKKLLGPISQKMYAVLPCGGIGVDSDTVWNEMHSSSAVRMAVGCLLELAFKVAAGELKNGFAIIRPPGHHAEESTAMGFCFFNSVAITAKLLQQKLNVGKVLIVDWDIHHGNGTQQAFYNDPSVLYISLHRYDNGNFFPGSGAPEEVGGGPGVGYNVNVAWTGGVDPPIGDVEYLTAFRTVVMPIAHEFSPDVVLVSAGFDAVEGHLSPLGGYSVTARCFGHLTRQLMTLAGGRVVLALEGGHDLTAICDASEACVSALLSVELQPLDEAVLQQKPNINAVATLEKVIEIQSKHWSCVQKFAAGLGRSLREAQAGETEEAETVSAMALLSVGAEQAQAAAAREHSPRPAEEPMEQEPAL
CYP3A4, sequence (P08684 whole entry): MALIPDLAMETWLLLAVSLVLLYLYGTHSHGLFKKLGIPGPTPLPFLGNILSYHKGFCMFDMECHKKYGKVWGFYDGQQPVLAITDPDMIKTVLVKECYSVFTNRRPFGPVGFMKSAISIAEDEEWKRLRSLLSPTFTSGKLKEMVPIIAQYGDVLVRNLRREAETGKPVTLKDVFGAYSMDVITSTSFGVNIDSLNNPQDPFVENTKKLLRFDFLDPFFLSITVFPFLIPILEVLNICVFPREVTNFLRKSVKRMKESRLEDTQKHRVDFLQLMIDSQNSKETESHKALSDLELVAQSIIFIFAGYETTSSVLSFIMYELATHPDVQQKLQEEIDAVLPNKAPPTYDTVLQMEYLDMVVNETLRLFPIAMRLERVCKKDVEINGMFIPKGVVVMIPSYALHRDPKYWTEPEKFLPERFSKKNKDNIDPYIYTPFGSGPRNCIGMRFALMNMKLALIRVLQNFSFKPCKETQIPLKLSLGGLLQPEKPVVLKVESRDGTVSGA
Amine oxidase [flavin-containing] B, sequence (P27338 whole entry): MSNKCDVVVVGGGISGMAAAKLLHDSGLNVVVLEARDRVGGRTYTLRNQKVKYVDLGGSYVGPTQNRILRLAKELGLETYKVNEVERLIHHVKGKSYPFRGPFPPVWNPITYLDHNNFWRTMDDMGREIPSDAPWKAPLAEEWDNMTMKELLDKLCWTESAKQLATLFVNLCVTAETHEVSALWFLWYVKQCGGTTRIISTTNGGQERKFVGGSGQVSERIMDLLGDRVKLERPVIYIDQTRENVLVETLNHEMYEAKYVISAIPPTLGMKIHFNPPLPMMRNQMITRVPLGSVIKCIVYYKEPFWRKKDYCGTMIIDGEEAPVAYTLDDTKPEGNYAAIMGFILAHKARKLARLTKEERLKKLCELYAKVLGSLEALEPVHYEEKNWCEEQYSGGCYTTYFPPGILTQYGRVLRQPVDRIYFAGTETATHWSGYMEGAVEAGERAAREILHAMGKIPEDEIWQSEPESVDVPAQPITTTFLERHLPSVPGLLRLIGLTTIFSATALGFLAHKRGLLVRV
Histone deacetylase 11, sequence (Q96DB2 whole entry): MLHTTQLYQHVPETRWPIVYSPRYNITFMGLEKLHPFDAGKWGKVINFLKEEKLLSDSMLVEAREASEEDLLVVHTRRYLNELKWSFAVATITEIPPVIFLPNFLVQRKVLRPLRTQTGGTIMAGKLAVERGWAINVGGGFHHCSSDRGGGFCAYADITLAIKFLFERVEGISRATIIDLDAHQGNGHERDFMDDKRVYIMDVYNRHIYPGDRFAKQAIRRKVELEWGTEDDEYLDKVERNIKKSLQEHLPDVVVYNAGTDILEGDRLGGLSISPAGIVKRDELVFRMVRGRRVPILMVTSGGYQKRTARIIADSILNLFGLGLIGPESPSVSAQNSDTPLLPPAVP

IC50 (Histone deacetylase 5) [nM]	IC50 [1] [nM]	half-life at 1 µM [2] [min]	inhibition at 10 µM (CYP2C9) [%]	inhibition at 10 µM (CYP1A2) [%]	IC50 [3] [nM]	IC50 (Histone deacetylase 11) [nM]	inhibition at 10 µM (CYP2D6) [%]	inhibition at 10 µM (CYP3A4) [%]	half-life at 1 µM [8] [min]	microsomal CLint at 1 µM [9] [µL/min/mg]	microsomal CLint at 1 µM [10] [µL/min/mg]	IC50 (HCT-116) [nM]	IC50 (MGC-803 [11]) [nM]	Structure (SMILES)	Activity (MGC-803 [4]) [%]	Activity (MGC-803 [5]) [%]	Activity (MGC-803 [6])	inhibition (MGC-803 [7])
> 10000	47	33	13.1	48.4	69400	> 10000	15	87.9	6.9	105	505	1450	1420	O=C(NO)c1ccc(/C=C/c2ccnc(-c3ccccc3O)c2)cc1	33.2	71.9	Dose-Dependent Effect	Dose-Dependent Effect
> 10000	15	51.3	11.7	0.95	> 100000	4930	5.8	47.6	17.2	67.4	202	800	770	Cc1ccc(-c2cc(/C=C/c3ccc(C(=O)NO)cc3)ccn2)c(F)c1	77.9	82.2	Dose-Dependent Effect	Dose-Dependent Effect
